The numbers were not newly measured in patent US8673343B2, “Preparation and administration of jojoba product for reducing weight, fat and blood lipid levels and for the prevention and treatment of cancer” (Yiwu Jiangr Bio-Technology HK Corp., priority 2001, dated 2014), which cites them from elsewhere.

For data set [1] the following is noted: growing rats, long-term administration of lower doses.
For data set [2] the following is noted: animal and human studies.

Regarding `CO[C@H]1[C@@H](OC)C[C@@H](O[C@@H]2O[C@H](CO)[C@@H](O)[C@H](O)[C@H]2O)/C(=C\C#N)[C@@H]1O` [simmondsin, 2-(cyanomethylene)-3-hydroxy-4,5-dimethoxycyclohexyl beta-D-glucoside], in data set [1], the side effects entry was “without showing any side effects” and the “sustained food intake inhibition” value was “about 20%”. Moreover, in data set [2], the “other side effects commonly associated with cancer chemotherapy” value is listed as “no other side effects”.
